We go through 52 compounds from patent publication EP1972623A1, “Arylpyridazines as fungicides” (Bayer CropScience AG, priority 2007, dated 2008).

The first data set can be described thus: logP determination via HPLC retention times (calibration with unbranched alkan-2-ones). It is filed as physicochemical. Particulars: HPLC on reversed-phase C 18 columns per EEC Directive 79/831 Annex V.A8; acidic mobile phase (0.1% aqueous formic or phosphoric acid) and acetonitrile, linear gradient 10% to 95% acetonitrile. An excerpt: Die Kalibrierung wurde jeweils mit unverzweigten Alkan-2-onn (3 bis 16 Kohlenstoff Atome) mit bekannten IogP Werten durchgeführt (Bestimmung von den logP Werten über die Retentionszeiten durch lineare Interpolation zwischen zwei bestimmten Alkazionen). Die Lambda-max Werte wurden jeweils in den Maxima der Chromatographie-Signale durch UV Spektren zwischen 190nm und 400nm bestimmt.
The chromatographic logP is lipophilicity estimated from chromatographic retention. A low value points to lower lipophilicity. `Cc1ccccc1-c1c(Cl)nnc(C)c1-c1cccs1` [Beispiel 190]: the chromatographic logP is 3.18.

Still in this data set, the particulars now being: HPLC on reversed-phase C 18 columns, EEC Directive 79/831 Annex V.A8; acidic aqueous mobile phase / acetonitrile, linear gradient 10% to 95% acetonitrile.
`Cc1nnc(Cl)c(-c2c(F)cccc2F)c1-c1ccncc1` [compound 102] gave a chromatographic logP of 2.08.

Take `Cc1nnc(Cl)c(-c2cccc(Cl)c2)c1-c1ccc(Cl)s1` [compound 173]: the chromatographic logP is 4.07.

For `Cc1nnc(Cl)c(-c2ccccc2Cl)c1-c1cccs1` [compound 59], the chromatographic logP worked out at 3.29.

`Cc1nnc(Cl)c(-c2cc(F)c(F)cc2F)c1-c1cccs1` [compound 85] came in with a chromatographic logP of 3.39.

`Cc1nnc(Cl)c(-c2ccc(F)cc2Br)c1-c1ccc(Cl)s1` [compound 10]: the chromatographic logP stood at 4.28.

A word on the logP: it is the decadic logarithm of the partition coefficient of the neutral form, usually between octanol and water. High values mean higher lipophilicity, low ones lower lipophilicity. Take `Cc1nnc(Cl)c(-c2ccccc2Cl)c1-c1ccc(Cl)s1` [Beispiel 58]: the lipophilicity (logP) is on record as 4,01.

In the case of `Cc1nnc(Cl)c(-c2cc(Cl)ccc2F)c1-c1ccc(Cl)s1` [compound 120], the chromatographic logP came to 4.16.

As for `Cc1ccc(-c2c(C)nnc(Cl)c2-c2cc(F)c(F)cc2F)nc1C` [compound 87], the chromatographic logP amounted to 3.15.

Compound `Cc1nnc(Cl)c(-c2ccc(F)cc2Br)c1-c1cccs1` [compound 11] gave a chromatographic logP of 3.56.

In turn, `Cc1nnc(Cl)c(-c2ccccc2F)c1-c1cccs1` [compound 121] returned a chromatographic logP of 3.05.

For `Cc1nnc(Cl)c(-c2ccccc2F)c1-c1ccc(Cl)s1` [compound 118], the chromatographic logP was determined as 3.7.

Regarding `Cc1nnc(Cl)c(-c2cccc(Cl)c2)c1-c1cccs1` [compound 172], the chromatographic logP was found to be 3.34.

In turn, `COc1ccccc1-c1c(Cl)nnc(C)c1-c1ccc(Cl)s1` [compound 182] returned a chromatographic logP of 3.65.

On to `Cc1nnc(Cl)c(-c2cc(F)c(F)cc2F)c1-c1ccc(Cl)s1` [compound 86], for which the chromatographic logP is 4.01.

The compound `Cc1nnc(Cl)c(-c2cccc3c2OC(F)(F)O3)c1-c1ccc(Cl)s1` [compound 1] returned a chromatographic logP of 4.33.

The data set is the same for the next values; noted with them: from retention times, linear interpolation between alkan-2-ones.
The compound `Cc1n[nH]c(=O)c(-c2ccc(F)cc2Br)c1-c1ccc(Cl)s1` [4-(2-Brom-4-fluorphenyl)-5-(5-chlor-2-thienyl)-6-methylpyridazin-3(2H)-on] yielded a chromatographic logP of 3.03.

Regarding `Cc1ccc(C2=C(c3c(F)cccc3F)C(C)(O)OC2=O)o1` (centres unmarked) [4-(2,6-Difluorphenyl)-3-(5-Methyl-2-furyl)-5-hydroxy-5-methylfuran-2(5H)-on], the logP amounted to 2.35.

`CC1(O)OC(=O)C(c2ccc(F)cc2Cl)=C1c1ccc(Cl)s1` (centres unmarked) [3-(2-Chlor-4-fluorphenyl)-4-(5-chlor-2-thienyl)-5-hydroxy-5-methylfuran-2(5H)-on] had a chromatographic logP of 3.24.

In the case of `CC1(O)OC(=O)C(c2c(Cl)cccc2Cl)=C1c1cccs1` (centres unmarked) [3-(2,6-Dichlorphenyl)-4-(2-thienyl)-5-hydroxy-5-methylfuran-2(5H)-on], the chromatographic logP came out at 2.57.

Compound `Cc1n[nH]c(=O)c(-c2cccc3c2OC(F)(F)O3)c1-c1ccc(Cl)s1` [5-(5-Chlor-2-thienyl)-4-(2,2-difluor-1,3-benzodioxol-4-yl)-6-methylpyridazin-3(2H)-on] had a chromatographic logP of 3.18.

In the case of `CC1(O)OC(=O)C(c2ccc(F)cc2Br)=C1c1cccs1` (centres unmarked) [3-(2-Brom-4-fluorphenyl)-4-(2-thienyl)-5-hydroxy-5-methylfuran-2(5H)-on], the chromatographic logP stood at 2.64.

`CC1(O)OC(=O)C(c2ccccc2Cl)=C1c1cccs1` (centres unmarked) [3-(2-Chlorphenyl)-4-(2-thienyl)-5-hydroxy-5-methylfuran-2(5H)-on] returned a chromatographic logP of 2.44.

Take `CC1(O)OC(=O)C(c2cccc(Cl)c2)=C1c1cccs1` (centres unmarked) [3-(3-Chlorphenyl)-4-(2-thienyl)-5-hydroxy-5-methylfuran-2(5H)-on]: the chromatographic logP was 2.73.

Compound `CC1(O)OC(=O)C(c2ccc(F)cc2Cl)=C1c1cccs1` (centres unmarked) [3-(2-Chlor-4-fluorphenyl)-4-(2-thienyl)-5-hydroxy-5-methylfuran-2(5H)-on] gave a chromatographic logP of 2.68.

The compound `Cc1n[nH]c(=O)c(-c2cc(F)c(F)cc2F)c1-c1cccs1` [5-(2-thienyl)-4-(2,4,5-trifluorphenyl)-6-methylpyridazin-3(2H)-on] displayed a chromatographic logP of 2.32.

`CC1(O)OC(=O)C(c2c(F)cccc2F)=C1c1ccc(Cl)s1` (centres unmarked) [4-(5-Chlor-2-thienyl)-3-(2,6-difluorphonyl)-5-hydroxy-5-methylfuran-2(5H)-on]: the chromatographic logP was determined as 2.94.

With `CC1(O)OC(=O)C(c2cccc(Cl)c2)=C1c1ccc(Cl)s1` (centres unmarked) [3-(3-Chlorphenyl)-4-(5-chlor-2-thienyl)-5-hydroxy-5-metylfuran-2(5H)-on], the chromatographic logP worked out at 3.38.

`Cc1ccc(C2=C(c3c(F)cccc3F)C(=O)OC2(C)O)nc1C` (centres unmarked) [3-(2,6-Difluorphenyl)-4-(5,6-Dimethyl-2-pyridyl)-5-hydroxy-5-methylfuran-2(5H)-on] gave a chromatographic logP of 2.65.

As for `Cc1nnc(Cl)c(-c2ccccc2Cl)c1-c1ccc(Cl)s1` [Beispiel 58], the chromatographic logP amounted to 4.01.

With `CC1(O)OC(=O)C(c2ccccc2F)=C1c1cccs1` (centres unmarked) [3-(2-Fluorphenyl)-4-(2-thienyl)-5-hydroxy-5-methylfuran-2(5H)-on], the chromatographic logP is 2.29.

Regarding `Cc1n[nH]c(=O)c(-c2c(Cl)cccc2Cl)c1-c1cccs1` [4-(2,6-Dichlorphenyl)-5-(2-thienyl)-6-methylpyridazin-3(2H)-on], the chromatographic logP turned out to be 2.43.

As to `Cc1ccc(-c2c(C)n[nH]c(=O)c2-c2c(Cl)cccc2Cl)nc1C` [5-(5,6-Dimethyl-2-pyridyl)-4-(2,6-dichlorphenyl)-6-methylpyridazin-3(2H)-on], the chromatographic logP amounted to 2.11.

Turning to “3-(2-Methyl)-4-(2-thienyl)-5-hydroxy-5-methylfuran-2(5H)-on”, the logP is 2.59.

`Cc1ccc(-c2c(C)n[nH]c(=O)c2-c2cc(F)c(F)cc2F)nc1C` [5-(5,6-Dimethyl-2-pyridyl)-4-(2,4,5-trifluorphenyl)-6-methylpyridazin-3(2H)-on]: the chromatographic logP was 2.06.

The compound `Cc1n[nH]c(=O)c(-c2ccccc2F)c1-c1ccc(Cl)s1` [5-(5-Chlor-2-thienyl)-4-(2-fluorphenyl)-6-methylpyridazin-3(2H)-on] came in with a chromatographic logP of 2.64.

`CC1(O)OC(=O)C(c2c(F)cccc2F)=C1c1ccncc1` (centres unmarked) [3-(2,6-Difluorphenyl)-4-(4-pyridyl)-5-hydroxy-5-methylfuran-2(5H)-on] came in with a chromatographic logP of 1.4.

In the case of `Cc1n[nH]c(=O)c(-c2cc(F)c(F)cc2F)c1-c1ccc(Cl)s1` [5-(5-Chlor-2-thienyl)-4-(2,4,5-trifluorphanyl)-6-methylpyridazin-3(2H)-on], the chromatographic logP was determined as 2.88.

With `Cc1n[nH]c(=O)c(-c2ccc(F)cc2Cl)c1-c1ccc(Cl)s1` [4-(2-Chlor-4-fluorphenyl)-5-(5-chlor-2-thienyl)-6-methylpyridazin-3(2H)-on], the chromatographic logP came to 2.97.

Compound `Cc1n[nH]c(=O)c(-c2c(F)cccc2F)c1-c1nccs1` [5-(2-Thiazolyl)-4-(2,6-difluorphenyl)-6-methylpyridazin-3(2H)-on] yielded a chromatographic logP of 1.57.

`CC1(O)OC(=O)C(c2c(F)cccc2F)=C1c1nccs1` (centres unmarked) [3-(2,6-Difluorphonyl)-4-(2-thiazolyl)-5-hydroxy-5-methylfuran-2(5H)-on] had a chromatographic logP of 1.92.

On to `Cc1ccc(C2=C(c3c(Cl)cccc3Cl)C(=O)OC2(C)O)nc1C` (centres unmarked) [3-(2,6-Dichlorphenyl)-4-(5,6-Dimethyl-2-pyridyl)5-hydroxy-5-methylfuran-2(5H)-on], for which the chromatographic logP turned out to be 3.14.

For `CC1(O)OC(=O)C(c2cc(F)c(F)cc2F)=C1c1ccc(Cl)s1` (centres unmarked) [4.(5-Chlor-2-thienyl)-3-(2,4,5-trifluorphenyl)-5-hydroxy-5-methylfuran-2(5H)-on], the chromatographic logP stood at 3.17. This chromatographic logP and that of the compound before are within 0.2 log units of each other.

`Cc1n[nH]c(=O)c(-c2c(Cl)cccc2Cl)c1-c1ccc(Cl)s1` [5-(5-Chlor-2-thienyl)-4-(2,6-dichlorphenyl)-6-methylpyridazin-3(2H)-on] came in with a chromatographic logP of 3.11.

In the case of `CC1(O)OC(=O)C(c2c(F)cccc2Cl)=C1c1cccs1` (centres unmarked) [3-(2-Chlor-6-fluorphenyl)-4-(2-thienyl)-5-hydroxy-5-methylfuran-2(5H)-on], the chromatographic logP came to 2.61.

For `CC1(O)OC(=O)C(c2c(Cl)cccc2Cl)=C1c1ccc(Cl)s1` (centres unmarked) [4-(5-Chlor-2-thienyl)-3-(2,6-dichlorphenyl)-5-hydroxy-5-methylfuran-2(5H)-on], the chromatographic logP was 3.26.

As to `CC1(O)OC(=O)C(c2cccc3c2OC(F)(F)O3)=C1c1ccc(Cl)s1` (centres unmarked) [4-(5-Chlor-2-thienyl)-3-(2,2-difluor-1,3-benzodioxol-4-yl)-5-hydroxy-5-methylfuran-2(5H)-on], the chromatographic logP was 3.41.

In turn, `Cc1ccc(C2=C(c3cc(F)c(F)cc3F)C(=O)OC2(C)O)nc1C` (centres unmarked) [3-(2,4,5-Trilluorphenyl)4-(5,6-Dimethyl-2-pyridyl)-5-hydroxy-5-methylfuran-2(5H)-on] gave a chromatographic logP of 2.89.

`Cc1n[nH]c(=O)c(-c2ccccc2Cl)c1-c1ccc(Cl)s1` [4-(2-Chlorphenyl)-5-(5-chlor-2-thienyl)-6-methylpyridazin-3(2H)-on] had a chromatographic logP of 2.83.

Compound `Cc1n[nH]c(=O)c(-c2cccc(Cl)c2)c1-c1ccc(Cl)s1` [4-(3-Chlorphenyl)-5-(5-chlor-2-thienyl)-6-methylpyridazin-3(2H)-on] showed a chromatographic logP of 3.04.

`Cc1ccc(-c2c(C)n[nH]c(=O)c2-c2c(F)cccc2F)o1` [5-(5-Methyl-2-furyl)-4-(2,6-difluorphenyl)-6-methylpyridazin-3(2H)-on] yielded a chromatographic logP of 2.19.

Consider `CC1(O)OC(=O)C(c2ccccc2F)=C1c1ccc(Cl)s1` (centres unmarked) [4-(5-Chlor-2-thienyl)-3-(2-fluorphenyl)-5-hydroxy-5-methylfuran-2(5H)-on], for which the chromatographic logP came out at 2.93.

In turn, `CC1(O)OC(=O)C(c2ccccc2Cl)=C1c1ccc(Cl)s1` (centres unmarked) [3-(2-Chlorphenyl)-4-(5-chlor-2-thienyl)-5-hydroxy-5-methylfuran-2(5H)-on] showed a chromatographic logP of 3.91.
